Laboratory results from patent US10167257B2, “Indole derivatives for use in medicine” (IOmet Pharma Ltd., priority 2014, dated 2019).

Key:
human IDO protein = human IDO protein (Homo sapiens, UniProt P14902); experiment: IDO biochemical coupled assay (hIDO); conditions: 0.17 μM human IDO protein, biochemical coupled assay with formamidase
Description: (§1) Two different types of assay were employed: 1. A TDO and IDO biochemical coupled assay which utilised recombinantly produced and purified TDO and IDO enzymes in combination with the enzyme formamidase. This coupled enzyme system allowed conversion of N-formylkynurenine produced by TDO or IDO activity to kynurenine which was then quantified by fluorescence following addition of Erhlich's Reagent. 2. A cell-based assay for detecting the effect of test compounds on kynurenine production in two different cancer cell types. This assay utilised cancer cells which expressed either TDO or IDO and as such was used as a means of testing compound activity at these two enzymes in a cell-based context. The protocols for these are set out below.
0.17 μM of human IDO protein was pre-incubated for 10 min or 120 min at RT with test compounds in the presence of 50 mM KPO4, pH 7.0, 0.5 mM EDTA, 0.5 mM EGTA, 0.05% Triton X-100, 20 mM ascorbate, 500 U/ml catalase, 10 μM methylene blue at RT in a 384 well plate. 0.05 μg/μl kynurenine formamidase and 45 μM or 121 μM L-tryptophan (L-Trp) were added and the assays were incubated at RT for 17 min. Assays were stopped and the level of kynurenine was determined by incubation with Ehrlich's reagent to a final concentration of 1.33% at RT for 5 min. Fluorescence intensity was read at 475 nm/530 nm.

IDO (SKOV-3 cells) = target: T1, IDO (SKOV-3 cells) (Homo sapiens, UniProt P14902); experiment: IDO cell-based assay (SKOV-3, IFNγ-induced), kynurenine production; conditions: SKOV-3 ovary adenocarcinoma cells, IFNγ 500 ng/ml, 500 μM L-Trp, 48 h, kynurenine by absorbance at 490 nm
T1 construct: This assay utilised cancer cells which expressed either TDO or IDO; host or cells: SKOV-3 ovary adenocarcinoma cells, IFNγ-induced
Method in brief: (§2)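 SKOV-3 cells (IDO, induced with 500 ng/ml IFNγ) or A172 glioblastoma cells (TDO) were incubated with compound and 500 μM L-Trp for 48 h at 37 °C in phenol-red-free RPMI with dialysed serum. Supernatant kynurenine was measured with 1% Ehrlich's reagent as absorbance at 490 nm.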

TDO (A172 cells) = target: T2, TDO (A172 cells) (Homo sapiens, UniProt P48775); experiment: TDO cell-based assay (A172), kynurenine production; conditions: A172 human glioblastoma cells, 500 μM L-Trp, 48 h, kynurenine by absorbance at 490 nm
T2 construct: This assay utilised cancer cells which expressed either TDO or IDO; host or cells: A172 human glioblastoma cells
Method in brief: as §2

human TDO protein = human TDO protein (Homo sapiens, UniProt P48775); experiment: TDO biochemical coupled assay (hTDO); conditions: 2 μM human TDO protein, biochemical coupled assay with formamidase; read-out: pIC50 in the hTDO test (converted)
Description: as §1
2 μM of human TDO protein was pre-incubated for 10 minutes at RT with test compounds in the presence of 50 mM KH2PO4, pH 7.0, 0.5 mM EDTA, 0.5 mM EGTA, 0.05% Triton X-100, 20 mM ascorbate, 500 U/ml catalase, 10 μM methylene blue at RT in a 384 well plate. 0.05 μg/μl kynurenine formamidase and 330 μM or 178 μM L-tryptophan were added and the assays were incubated at room temperature (RT) for 17 min. Assays were stopped and the level of kynurenine was determined by incubation with Ehrlich's reagent to a final concentration of 1.33% at RT for 5 min. Fluorescence intensity was read at 475 nm/530 nm.

T2 sequence (P48775 whole entry): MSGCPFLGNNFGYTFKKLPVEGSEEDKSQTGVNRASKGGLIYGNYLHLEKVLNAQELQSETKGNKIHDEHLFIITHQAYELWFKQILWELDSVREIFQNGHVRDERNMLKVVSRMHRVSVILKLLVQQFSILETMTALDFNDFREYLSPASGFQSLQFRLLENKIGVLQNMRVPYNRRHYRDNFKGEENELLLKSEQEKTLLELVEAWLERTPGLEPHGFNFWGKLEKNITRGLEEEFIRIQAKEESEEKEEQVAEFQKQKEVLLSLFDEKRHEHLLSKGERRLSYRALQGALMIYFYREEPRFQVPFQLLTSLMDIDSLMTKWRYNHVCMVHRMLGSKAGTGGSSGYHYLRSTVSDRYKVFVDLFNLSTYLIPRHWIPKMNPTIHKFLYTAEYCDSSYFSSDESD
T1 sequence (P14902 whole entry): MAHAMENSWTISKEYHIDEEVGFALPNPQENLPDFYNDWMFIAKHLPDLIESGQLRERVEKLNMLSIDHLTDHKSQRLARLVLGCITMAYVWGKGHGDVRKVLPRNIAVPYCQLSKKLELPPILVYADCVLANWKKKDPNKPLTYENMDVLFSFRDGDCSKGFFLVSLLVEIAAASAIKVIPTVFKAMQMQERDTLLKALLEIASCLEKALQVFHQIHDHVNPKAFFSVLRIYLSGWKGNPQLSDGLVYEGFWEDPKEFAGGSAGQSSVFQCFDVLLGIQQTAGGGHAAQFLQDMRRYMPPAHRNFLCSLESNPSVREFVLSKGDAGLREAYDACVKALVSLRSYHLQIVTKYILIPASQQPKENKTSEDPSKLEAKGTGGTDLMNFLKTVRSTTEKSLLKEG
Sequence of human IDO protein (P14902 whole entry): as above
Sequence of human TDO protein (P48775 whole entry): as the sequence (P48775 whole entry) above

Compound	IDO cellular assay (SKOV3) pIC50 (IDO (SKOV-3 cells))	TDO cellular assay (A172) pIC50 (TDO (A172 cells))	other results
CC(NC(=O)c1cc2cc(Cl)ccc2[nH]1)c1ccc(C(=O)N(C)C)cc1 (stereo not drawn) [Compound 83]	+++ (+++ = pIC50 ≥5.50)	− (− = pIC50 <4.50)	pIC50 in the hIDO assay (human IDO protein): 5.24
Cn1cc(C2(NC(=O)c3cc4cc(Br)ccc4[nH]3)CC2)cn1 [Compound 263]	+++ (+++ = pIC50 ≥5.50)	− (− = pIC50 <4.50)	
CCc1ccc2[nH]c(C(=O)NC3(c4cnn(C)c4)CC3)cc2c1 [Compound 264]	+++ (+++ = pIC50 ≥5.50)	− (− = pIC50 <4.50)	
CC(C)Oc1ccc2[nH]c(C(=O)NC3(c4cnn(C)c4)CC3)cc2c1 [Compound 265]	+++ (+++ = pIC50 ≥5.50)	− (− = pIC50 <4.50)	
Cn1cc(C2(NC(=O)c3cc4cc(Cl)ccc4[nH]3)CCOCC2)cn1 [Compound 266]	+++ (+++ = pIC50 ≥5.50)	− (− = pIC50 <4.50)	
CC(Cc1cnn(C)c1)NC(=O)c1cc2cc(Cl)ccc2[nH]1 (stereo not drawn) [Compound 267]	+++ (+++ = pIC50 ≥5.50)	++ (++ = pIC50 5.00-<5.50)	
Cn1cc(C2(NC(=O)c3cc4cc(Br)ccc4[nH]3)CCC2)cn1 [Compound 268]	+++ (+++ = pIC50 ≥5.50)	− (− = pIC50 <4.50)	
Cn1cc(C2(NC(=O)c3cc4cc(OC(F)(F)F)ccc4[nH]3)CCC2)cn1 [Compound 269]	+++ (+++ = pIC50 ≥5.50)	− (− = pIC50 <4.50)	
CCOc1ccc2[nH]c(C(=O)N[C@H](C)c3ccccc3)cc2c1 [Compound 270]	+++ (+++ = pIC50 ≥5.50)	− (− = pIC50 <4.50)	
CCOc1ccc2[nH]c(C(=O)NC3(c4ccccc4)CC3)cc2c1 [Compound 271]	+++ (+++ = pIC50 ≥5.50)	++ (++ = pIC50 5.00-<5.50)	
CCOc1ccc2[nH]c(C(=O)NC(C)c3cnn(C)c3)cc2c1 (stereo not drawn) [Compound 272]	+++ (+++ = pIC50 ≥5.50)	− (− = pIC50 <4.50)	
CCOc1ccc2[nH]c(C(=O)NC3(c4cnn(C)c4)CC3)cc2c1 [Compound 273]	+++ (+++ = pIC50 ≥5.50)	− (− = pIC50 <4.50)	
O=C(NC1(c2cocn2)CC1)c1cc2cc(Cl)ccc2[nH]1 [Compound 274]	+++ (+++ = pIC50 ≥5.50)	− (− = pIC50 <4.50)	
Cn1cc(C2(NC(=O)c3cc4cc(OC(F)(F)F)ccc4[nH]3)CC2)cn1 [Compound 275]	+++ (+++ = pIC50 ≥5.50)	− (− = pIC50 <4.50)	
O=C(Nc1cccnc1)c1cc2ccccc2[nH]1 [REF, reference compound]			IC50 (human TDO protein): > 102 µM; IC50 (human IDO protein; read-out: pIC50 in the hIDO assay (converted)): > 102 µM; IC50 (IDO (SKOV-3 cells); read-out: IDO cellular assay (SKOV3) pIC50 (converted)): > 31.6 µM; IC50 (TDO (A172 cells); read-out: TDO cellular assay (A172) pIC50 (converted)): > 31.6 µM
